Reference: ChEMBL document CHEMBL5608163, “Structure modification of anoplin for fighting resistant bacteria” (Eur J Med Chem, 2024)
Values after ≈ are worked out from the molar mass of the structure shown. Square brackets hold non-standard residues; d marks the D form. Peptide text beside a SMILES is read from it. 2Nal = N[C@@H](Cc1ccc2ccccc2c1)C(=O)O

Assays:
Pseudomonas aeruginosa [1] = assay: Antibacterial activity against Pseudomonas aeruginosa ATCC 27853 assessed as reduction in microbial growth incubated for 16 to 20 hrs by CLSI protocol based Muller Hinton broth assay; assay type: functional; settings: time 16-20 hrs
Staphylococcus aureus [2] = assay: Antibacterial activity against methicillin-resistant Staphylococcus aureus ATCC 33591 assessed as reduction in bacterial growth incubated for 18 hrs by agar dilution method; assay type: functional
Enterococcus faecium = assay: Antibacterial activity against vancomycin resistant Enterococcus faecium ATCC 700221 assessed as inhibition of bacterial growth incubated for 48 hrs by CLSI-based broth microdilution assay; assay type: functional
[3] = Hemolytic activity in human RBC assessed as hemolysis measured after 24 hrs; assay type: toxicity, cell-based, Erythrocyte; settings: red blood cells
Escherichia coli [4] = assay: Antibacterial activity against Escherichia coli ATCC 25922 assessed as reduction in microbial growth incubated for 16 to 20 hrs by CLSI protocol based Muller Hinton broth assay; assay type: functional; settings: time 16-20 hrs
[5] = tested on: Staphylococcus epidermidis; assay: Antibacterial activity against Staphylococcus epidermidis ATCC 12228 assessed as reduction in bacterial growth incubated for 18 hrs by CLSI-based Mueller-Hinton broth dilution method; assay type: functional
Klebsiella pneumoniae = assay: Antibacterial activity against Klebsiella pneumoniae ATCC 700603 assessed as reduction in bacterial growth incubated for 18 hrs by CLSI-based Mueller-Hinton broth dilution method; assay type: functional
Bacillus subtilis = assay: Antibacterial activity against Bacillus subtilis ATCC 23857 assessed as reduction in bacterial growth incubated for 18 hrs by CLSI-based Mueller-Hinton broth dilution method; assay type: functional
Erythrocyte = assay: Hemolytic activity in mouse erythrocyte assessed as hemolysis incubated for 1 hr by microplate reader analysis; assay type: toxicity, cell-based
Pseudomonas aeruginosa [6] = assay: Antibacterial activity against Pseudomonas aeruginosa ATCC 27853 assessed as reduction in bacterial growth incubated for 18 hrs by CLSI-based Mueller-Hinton broth dilution method; assay type: functional
Escherichia coli [7] = assay: Antibacterial activity against Escherichia coli ML-35 ATCC 43837 assessed as reduction in bacterial growth incubated for 18 hrs by CLSI-based Mueller-Hinton broth dilution method; assay type: functional
Staphylococcus aureus [8] = assay: Antimicrobial activity against Staphylococcus aureus ATCC 25923 assessed as reduction in microbial growth incubated for 18 hrs by CLSI-based Mueller-Hinton broth dilution method; assay type: functional
Acinetobacter baumannii = assay: Antibacterial activity against Acinetobacter baumannii ATCC 19606 assessed as reduction in bacterial growth incubated for 18 hrs by CLSI-based Mueller-Hinton broth dilution method; assay type: functional

Structure (SMILES)	MIC [5]	MIC (Klebsiella pneumoniae)	MIC (Bacillus subtilis)	MIC (Pseudomonas aeruginosa [6])	MIC (Escherichia coli [7])	MIC (Staphylococcus aureus [8])	MIC (Acinetobacter baumannii)	MIC (Pseudomonas aeruginosa [1])	MIC (Staphylococcus aureus [2])	MIC (Enterococcus faecium)	HC50 at 24 h [3]	MIC (Escherichia coli [4])	HC10 (Erythrocyte)
CC[C@H](C)[C@H](NC(=O)[C@H](Cc1c[nH]c2ccccc12)NC(=O)[C@H](CCCCN)NC(=O)[C@H](CC(C)C)NC(=O)[C@H](CC(C)C)NC(=O)CN)C(=O)N[C@@H](CCCCN)C(=O)N[C@@H](CCCCN)C(=O)N[C@@H](CC(C)C)C(=O)N[C@@H](CC(C)C)C(N)=O (H-GLLKWIKKLL-NH2)	–	–	–	–	–	–	–	9.5 µM	2.5 µM (≈ 3.03 µg/mL)	3.2 µM (≈ 3.87 µg/mL)	11.6 µM	3.2 µM	–
CCCCCCCCCCCCCCCCC(=O)NCCCC[C@@H](NC(=O)[C@@H](NC(=O)[C@H](CCCNC(=N)N)NC(=O)[C@@H](CCCCN)NC(=O)[C@H](CC(C)C)NC(=O)[C@H](CC(C)C)NC(=O)CN)[C@@H](C)CC)C(=O)N[C@H](C(=O)N[C@@H](CC(C)C)C(=O)N[C@@H](CC(C)C)C(N)=O)[C@@H](C)O	32 µM (≈ 45 µg/mL)	64 µM (≈ 90 µg/mL)	16 µM (≈ 22.5 µg/mL)	64 µM (≈ 90 µg/mL)	64 µM (≈ 90 µg/mL)	64 µM	16 µM (≈ 22.5 µg/mL)	–	–	–	–	–	16 µM
CC(C)C[C@H](NC(=O)[C@H](CC(C)C)NC(=O)[C@@H](NC(=O)[C@H](CCCCN)NC(=O)[C@H](Cc1ccc2ccccc2c1)NC(=O)[C@H](CCCNC(=N)N)NC(=O)[C@H](CCCCN)NC(=O)[C@H](CC(C)C)NC(=O)[C@H](CC(C)C)NC(=O)CN)[C@@H](C)O)C(N)=O (H-GLLKR[2Nal]KTLL-NH2)	–	–	–	–	–	–	–	28.4 µM	85.3 µM (≈ 106 µg/mL)	28.4 µM (≈ 35.1 µg/mL)	> 500 µM	28.4 µM	–
CCCCCCCCCCCCCCC(=O)NCCCC[C@@H](NC(=O)[C@@H](NC(=O)[C@H](CCCNC(=N)N)NC(=O)[C@@H](CCCCN)NC(=O)[C@H](CC(C)C)NC(=O)[C@H](CC(C)C)NC(=O)CN)[C@@H](C)CC)C(=O)N[C@H](C(=O)N[C@@H](CC(C)C)C(=O)N[C@@H](CC(C)C)C(N)=O)[C@@H](C)O	4 µM (≈ 5.51 µg/mL)	32 µM (≈ 44.1 µg/mL)	8 µM (≈ 11 µg/mL)	32 µM (≈ 44.1 µg/mL)	64 µM (≈ 88.2 µg/mL)	16 µM	8 µM (≈ 11 µg/mL)	–	–	–	–	–	16 µM

Continued, in another order:

MIC [5]	MIC (Klebsiella pneumoniae)	MIC (Bacillus subtilis)	MIC (Pseudomonas aeruginosa [6])	MIC (Escherichia coli [7])	MIC (Staphylococcus aureus [8])	MIC (Acinetobacter baumannii)	Structure (SMILES)	MIC (Pseudomonas aeruginosa [1])	MIC (Staphylococcus aureus [2])	MIC (Enterococcus faecium)	HC50 at 24 h [3]	MIC (Escherichia coli [4])	HC10 (Erythrocyte)
128 µM (≈ 162 µg/mL)	> 128 µM	32 µM (≈ 40.5 µg/mL)	64 µM (≈ 81 µg/mL)	> 128 µM	> 128 µM	> 128 µM	CCCCCCC(=O)NCCCC[C@@H](NC(=O)[C@H](CC(C)C)NC(=O)[C@H](CC(C)C)NC(=O)CN)C(=O)N[C@@H](CCCNC(=N)N)C(=O)N[C@H](C(=O)N[C@H](CCCCN)C(=O)N[C@H](C(=O)N[C@@H](CC(C)C)C(=O)N[C@@H](CC(C)C)C(N)=O)[C@@H](C)O)[C@@H](C)CC	–	–	–	–	–	> 256 µM
4 µM (≈ 5.4 µg/mL)	8 µM (≈ 10.8 µg/mL)	2 µM (≈ 2.7 µg/mL)	4 µM (≈ 5.4 µg/mL)	4 µM (≈ 5.4 µg/mL)	4 µM	4 µM (≈ 5.4 µg/mL)	CCCCCCCCCCCCC(=O)NCCCC[C@@H](NC(=O)[C@H](CC(C)C)NC(=O)[C@H](CC(C)C)NC(=O)CN)C(=O)N[C@@H](CCCNC(=N)N)C(=O)N[C@H](C(=O)N[C@H](CCCCN)C(=O)N[C@H](C(=O)N[C@@H](CC(C)C)C(=O)N[C@@H](CC(C)C)C(N)=O)[C@@H](C)O)[C@@H](C)CC	–	–	–	–	–	32 µM
128 µM (≈ 158 µg/mL)	> 128 µM	64 µM (≈ 79.2 µg/mL)	64 µM (≈ 79.2 µg/mL)	128 µM (≈ 158 µg/mL)	> 128 µM	> 128 µM	CCCCC(=O)NCCCC[C@@H](NC(=O)[C@@H](NC(=O)[C@H](CCCNC(=N)N)NC(=O)[C@@H](CCCCN)NC(=O)[C@H](CC(C)C)NC(=O)[C@H](CC(C)C)NC(=O)CN)[C@@H](C)CC)C(=O)N[C@H](C(=O)N[C@@H](CC(C)C)C(=O)N[C@@H](CC(C)C)C(N)=O)[C@@H](C)O	–	–	–	–	–	> 256 µM
16 µM (≈ 20.3 µg/mL)	128 µM (≈ 162 µg/mL)	8 µM (≈ 10.1 µg/mL)	32 µM (≈ 40.5 µg/mL)	32 µM (≈ 40.5 µg/mL)	128 µM	32 µM (≈ 40.5 µg/mL)	CCCCCCC(=O)NCCCC[C@@H](NC(=O)[C@@H](NC(=O)[C@H](CCCNC(=N)N)NC(=O)[C@@H](CCCCN)NC(=O)[C@H](CC(C)C)NC(=O)[C@H](CC(C)C)NC(=O)CN)[C@@H](C)CC)C(=O)N[C@H](C(=O)N[C@@H](CC(C)C)C(=O)N[C@@H](CC(C)C)C(N)=O)[C@@H](C)O	–	–	–	–	–	256 µM
4 µM (≈ 5.18 µg/mL)	32 µM (≈ 41.4 µg/mL)	2 µM (≈ 2.59 µg/mL)	16 µM (≈ 20.7 µg/mL)	4 µM (≈ 5.18 µg/mL)	8 µM	8 µM (≈ 10.4 µg/mL)	CCCCCCCCC(=O)NCCCC[C@@H](NC(=O)[C@@H](NC(=O)[C@H](CCCNC(=N)N)NC(=O)[C@@H](CCCCN)NC(=O)[C@H](CC(C)C)NC(=O)[C@H](CC(C)C)NC(=O)CN)[C@@H](C)CC)C(=O)N[C@H](C(=O)N[C@@H](CC(C)C)C(=O)N[C@@H](CC(C)C)C(N)=O)[C@@H](C)O	–	–	–	–	–	256 µM
